Laboratory results taken from patent US20230346820A1, “METHODS AND COMPOSITIONS FOR THE TREATMENT OF SARS-COV-2” (priority 2020, published 2023).
Where a name gives a salt, the structure may show the parent alone. Read-outs that look alike come from different tables or passages of the source.

Columns and labels:
SARS-CoV-2 [1] = assay: microbe, parasite or virus in culture; conditions: Severe acute respiratory syndrome coronavirus 2, Calu-3, 48 h, read-out: Calu-3 CoV-2 EC50 [μM]
in vitro [2] = conditions: human
Experimental: To assess cell viability, 2 μL of 50% Cell-Titer Glo (Promega No G7573) diluted in water was added to the cells and luminescence measured on an EnVision Plate Reader (Perkin Elmer).
Data analysis. […] Primary in vitro screen and the host cell cytotoxicity counter screen data were uploaded to Genedata Screener, Version 16.0.3-Standard. […] For the uninfected host cell cytotoxicity counter screens, 40 μM puromycin (Sigma) was used as the positive (inhibitory) control in HeLa-ACE2, HepG2 and HEK293T cells, and 30 μM puromycin (Sigma) was used as the positive (inhibitory) control for Calu-3 cells. For dose response experiments compounds were tested in technical triplicates on different assay plates and dose curves were fitted with the four parameter Hill Equation. Technical replicate data were analyzed using median condensing. Geometric means and geometric standard deviations are reported for compound activities (EC50s and CC50s) obtained in multiple independent biological experiments. […] Geometric means were calculated by computing the logarithm (base 10) of all values, calculating the mean of these logarithms, and taking the antilog of that mean. Geometric standard deviations were computed by taking the standard deviation of the log-transformed individual values and taking the antilog of that standard deviation. The geometric standard deviation is a unitless ratio and reported as ×÷ instead of +/−.

SARS-CoV-2 [3] = tested on: SARS-CoV-2
in vitro [4] = conditions: human; remark: listed apart in the source
SARS-CoV-2 [5] = assay: microbe, parasite or virus in culture
SARS-CoV-2 [6] = conditions: for HeLa-ACE2 SI CC50/CoV-2 EC50: Table 4
HeLa-ACE2 cells = assay: cells; assay type: cell-based, human; conditions: Homo sapiens, HeLa-ACE2, read-out: HeLa-ACE-2 EC50 [μM] (Geomeans, n ≥ 2)
[7] = Severe acute respiratory syndrome coronavirus 2, HeLa-ACE2, read-out: HeLa-ACE2 CoV-2 EC50 [μM], Table 4, aggregated data, Geomean, n = 3
[8] = HeLa-ACE2 Uninfected Tox CC50 [μM], Table 4, aggregated data, Geomean, n = 3
[9] = CC50 [μM] (Geomeans, n ≥ 2 except where indicated: *n = 1)
[10] = Severe acute respiratory syndrome coronavirus 2, HeLa-ACE2, 24 h, read-out: CoV-2 EC50 [μM] (Geomeans, n ≥ 2)

SMILES	EC50 (SARS-CoV-2 [1]) [µM]	CC50 (in vitro [2]) [µM]	Calu3 SI CC50/CoV-2 EC50 (SARS-CoV-2 [3]; Table 4)	CC50 (in vitro [4]; [8]) [µM]	HeLa-ACE2 CC50/CoV-2 EC50 (SARS-CoV-2 [6])	EC50 (HeLa-ACE2 cells) [µM]	CC50 (in vitro [4]; [9]) [µM]	EC50 (SARS-CoV-2 [5]; [10]) [µM]	further results
CCc1ccc(C2=CC(C)(C)Sc3ccc(C#Cc4ccc(C(=O)O)cc4)cc32)cc1 [AGN-194310]	0.597	> 29.9	–	–	–	–	–	–	Calu3 SI CC50/CoV-2 EC50 (SARS-CoV-2 [3]): >50; CC50 (in vitro [4]; HeLa-ACE2 Uninfected Tox CC50 [μM]): > 39.8 µM
CC(N)c1ccc(C(=O)Nc2ccncc2)cc1-c1ccc(F)cc1 (stereo not shown) [AMA-0076]	3.87	> 29.9	>16	35.8	–	–	–	–	EC50 (SARS-CoV-2 [5]; [7]): > 9.59 µM
CC/C(=C(/c1ccc(/C=C/C(=O)O)cc1)c1ccc2[nH]ncc2c1)c1ccc(F)cc1Cl [ARN-810]	1.1	23.8	21.60	11	–	–	–	–	–
CCCCCCC1C(=O)O[C@H](C)[C@H](NC(=O)c2cccc(NC=O)c2O)C(=O)O[C@@H](C)[C@@H]1OC(=O)CC(C)C (stereo partly shown) [Antimycin A]	0.028	0.608	22.00	> 39.8	–	–	–	–	EC50 (SARS-CoV-2 [5]; [7]): > 9.59 µM
C=Cc1cc(C(=O)Nc2ccc(C(=N)N)cc2)c(-c2ccc(C(=O)NCC3CC3)nc2C(=O)O)cc1OC [Avoralstat]	–	> 29.9	>77	> 39.8	–	–	–	–	activity in Calu-3 infection assay (SARS-CoV-2 [3]): active
COC(=O)[C@]12CCC(C)(C)C[C@H]1[C@H]1C(=O)C=C3[C@@]4(C)C=C(C#N)C(=O)C(C)(C)[C@@H]4CC[C@@]3(C)[C@]1(C)CC2 [Bardoxolone Methyl]	–	3.06	38.47	3.1	–	–	–	–	HeLa-ACE2 SI CC50/CoV-2 EC50 (SARS-CoV-2 [6]): 5.73
O=C(Nc1ccc(Cl)c(S(=O)(=O)N2CCNCC2)c1O)Nc1cccc(F)c1Cl [Elubrixitosylate]	6.91	> 29.6	>4.28	> 39.8	–	–	–	–	HeLa-ACE2 SI CC50/CoV-2 EC50 (SARS-CoV-2 [6]): 4.35
N#Cc1cccc(C(C(=O)NCC(c2ccccc2)c2ccccc2)N(CCc2c[nH]cn2)C(=O)c2ccccc2C(=O)c2ccccc2)c1 (stereo not shown) [GENZ-29155]	> 4.66	> 29.9	>6.41	> 38.5	–	–	–	–	HeLa-ACE2 SI CC50/CoV-2 EC50 (SARS-CoV-2 [6]): 4.01
CCCCCCCC/C=C/CCCCCCCC(=O)OC[C@H]1O[C@@H](n2ccc(N)nc2=O)C(F)(F)[C@@H]1O [Gemcitabine elaidate]	0.324	> 29.9	>92	6.01	–	–	–	–	EC50 (SARS-CoV-2 [5]; [7]): > 9.59 µM
CSc1ccc(CN2CCCC(Nc3ccc4[nH]ncc4c3)C2)cc1 (stereo not shown) [INS-117548]	> 3.55	> 29.9	>8.42	> 39.8	–	–	–	–	HeLa-ACE2 SI CC50/CoV-2 EC50 (SARS-CoV-2 [6]): 4.15
CC(=O)O[C@H]1C[C@H](O[C@H]2[C@@H](O)C[C@H](O[C@H]3[C@@H](O)C[C@H](O[C@H]4CC[C@@]5(C)[C@H](CC[C@@H]6[C@@H]5C[C@@H](O)[C@]5(C)[C@@H](C7=CC(=O)OC7)CC[C@]65O)C4)O[C@@H]3C)O[C@@H]2C)O[C@H](C)[C@H]1O[C@@H]1O[C@H](CO)[C@@H](O)[C@H](O)[C@H]1O [LANATOSIDE]	0.194	6.21	31.97	1.35	–	–	–	–	HeLa-ACE2 SI CC50/CoV-2 EC50 (SARS-CoV-2 [6]): 6.56
O[C@@H]1CO[C@H]2[C@@H]1OC[C@H]2Oc1nc2nc(-c3ccc(-c4ccccc4)cc3)c(Cl)cc2[nH]1 [MK-8722]	2.73	> 29.9	>10	37.4	–	–	–	–	–
CC(C)(O)c1ccccc1-c1ccc2[nH]c(/C=C/c3ccc(C(F)(F)F)cc3)nc2c1 [Mavatrep]	2.66	14.6	5.50	22.5	–	–	–	–	EC50 (SARS-CoV-2 [5]; [7]): > 9.59 µM
O=c1nc(NO)ccn1[C@@H]1O[C@H](CO)[C@@H](O)[C@H]1O [N-hydroxycytidine]	–	–	–	–	>18.13	> 9.6	> 37.5	–	activity in HeLa-ACE2 infection assay (SARS-CoV-2 [6]): potent and selective; activity in Calu-3 infection assay (SARS-CoV-2 [3]): potent and selective
CC[C@@H]1/C=C/C=C/C[C@H](C)[C@@H](O)[C@](C)(O)C(=O)[C@H](C)[C@@H](O)[C@H](C)C(=O)[C@H](C)[C@@H](O)[C@H](C)/C=C/C(=O)O[C@H]2[C@@H](C)[C@@H](CC1)O[C@]1(O[C@H](C[C@H](C)O)[C@H](C)CC1=O)[C@@H]2C [Oligomycin B]	0.005	–	4539.49	–	–	–	–	–	CC50 at 48 h (in vitro [2]): 24.5 µM
N=C(N)Nc1ccc(C(=O)Oc2ccc(S(N)(=O)=O)cc2)cc1 [Ono-3307]	1.6	> 29.9	>16	> 39.8	–	–	–	–	–
CC(C)(C)c1ccc(CSc2cnn(C(C)(C)C)c(=O)c2Cl)cc1 [PYRIDABEN]	0.205	8.99	43.89	> 39.8	–	–	–	–	–
Cc1ccc(C(=O)Nc2cccc(C(F)(F)F)c2)cc1NC(=O)c1cccc2c(N)nccc12 [RFM-011-761-3]	–	–	–	–	>3.37	> 9.06	> 21.2	6.31	–
COc1ccc(C2(c3ccccc3)NC(=O)N(CCCN3CCC(c4ccccc4)CC3)C2=O)cc1 (stereo not shown) [ROPITOIN]	–	–	–	–	5.28	> 9.59	21.5	4.08	–

SMILES	EC50 (SARS-CoV-2 [1]) [µM]	CC50 (in vitro [2]) [µM]	Calu3 SI CC50/CoV-2 EC50 (SARS-CoV-2 [3]; Table 4)	CC50 (in vitro [4]; [8]) [µM]	HeLa-ACE2 CC50/CoV-2 EC50 (SARS-CoV-2 [6])	EC50 (HeLa-ACE2 cells) [µM]	CC50 (in vitro [4]; [9]) [µM]	EC50 (SARS-CoV-2 [5]; [10]) [µM]	further results
CC(=O)N1C[C@H](O)C[C@H]1C(=O)N[C@@H](CCCNC(=N)N)C(=O)c1nc2ccccc2s1 [RWJ-56423]	1.23	> 29.9	>24	> 39.8	–	–	–	–	–
Cc1cn2nc(-c3cc(=O)n4cc(N5CCNC6(CC6)C5)ccc4n3)cc(C)c2n1 [Risdiplam]	–	–	–	–	2.53	> 7.05	> 17.8	> 7.05	–
CCOC(=O)/C=C/[C@H](C[C@@H]1CCNC1=O)NC(=O)[C@@H](CC(=O)[C@@H](NC(=O)c1cc(C)on1)C(C)C)Cc1ccc(F)cc1 [Rupinavir]	–	–	–	–	4.15	> 9.59	> 39.8	> 9.59	–
O=c1[nH]ccc2cc(OC3CCNCC3)ccc12 [SAR-407899]	> 3.85	> 29.9	>7.77	> 38.7	–	–	–	–	HeLa-ACE2 SI CC50/CoV-2 EC50 (SARS-CoV-2 [6]): 4.03
CC(CN1CCN(c2cccc3c2CCCN3)CC1)NC(=O)c1ccc(F)cc1 (stereo not shown) [SLV-307]	–	–	–	–	4.15	> 6.7	> 39.8	> 9.59	–
CN(C)CCC1CCc2cc(OCc3ccc(-c4ccccc4)cc3)ccc2C1 (stereo not shown) [TAK-070]	–	–	–	–	7.19	> 5.5	10.1	1.41	–
COc1cc(CC2c3cc(OC)c(OC)cc3CCN2C)c(Oc2cc3c(cc2OC)-c2c(O)c(OC)cc4c2C(C3)N(C)CC4)cc1OC (stereo not shown) [Thalicarpine Analog]	–	–	–	–	26.77	> 8.78	> 21.5	> 0.8	–
CN1CCN(CCCN2c3ccccc3Sc3ccc(S(=O)(=O)N(C)C)cc32)CC1 [Thioproperazine]	–	–	–	–	7.29	> 9.59	22.1	3.03	–
NC(N)=Nc1ncc(Cl)c2ccc(-c3cccc(C(=O)O)c3)cc12 [UK-356202]	1.92	> 29.9	>15	> 39.8	–	–	–	–	–
COC(=O)C1=C(C)NC(C)=C(C(=O)OCCCCNC[C@@H](O)COc2ccccc2)C1c1cccc([N+](=O)[O-])c1 (stereo partly shown) [YM 430]	–	–	–	–	7.01	> 7.8	> 20.2	2.88	–
CC(=N)N1CCC(Oc2ccc(N(Cc3ccc4ccc(C(=N)N)cc4c3)S(=O)(=O)CC(=O)O)cc2)CC1 [YM 60828]	3.38	> 29.9	>9	> 39.8	–	–	–	–	–
C=CCc1c(OCCCNCc2ccccc2)ccc2c1[nH]c1ccccc12 [YM-75440]	–	–	–	–	4.89	> 6.58	8.01	1.64	–
OCCN1CCN(CC/C=C2\c3ccccc3Sc3ccc(Cl)cc32)CC1 [ZUCLPEN THIXL]	–	–	–	–	>8.08	> 9.59	> 16.8	2.08	–
C[C@@H](n1cnc2cc(Cl)ccc2c1=O)[C@](O)(Cn1cncn1)c1ccc(F)cc1F [albaconazole]	–	–	–	–	6.6	> 9.59	> 39.8	> 6.04	–
COCc1c(C(C)C)nc(C(C)C)c(/C=C/[C@@H](O)C[C@@H](O)CC(=O)O)c1-c1ccc(F)cc1 [cerivastatin (sodium salt)]	0.348	> 29.9	>85	0.308	–	–	–	–	–
COc1ccc2nc3cc(Cl)ccc3c(Nc3cc(CN4CCCC4)c(O)c(CN4CCCC4)c3)c2n1 [pyronaridine]	–	–	–	–	>4.86	3.41	> 7.39	1.52	–
O=C(c1ccc(OCCN2CCCCC2)cc1)c1c(-c2ccc(O)cc2)sc2cc(O)ccc12 [raloxifene hydrochloride]	–	–	–	–	>2.97	> 8.71	> 13.3	4.48	–
COc1cc2c(Nc3ccc(Cl)c(Cl)c3F)ncnc2cc1OC[C@@H]1C[C@@H]2CN(C)C[C@@H]2C1 [tesevatinib]	–	–	–	–	>8.46	> 8.16	> 20.6	2.44	–
